Experimental findings from article PMC9510126, “Hydrophobicity is a key determinant in the activity of arginine-rich cell penetrating peptides” (Scientific Reports, 2022) are described below.

For test [1], the system named is MDA-MB-231 cells. The experiment in a line: Staining of endosomes with LysoTracker (puncta per cell). In kind it is cell-based, human. As to conditions: for lysotracker stained puncta, control agents: MDA-MB-231, LLOME 1 mM 10 min, bafilomycin 1 µM 4 h; for lysotracker-positive puncta per cell 12 h after incubation: MDA-MB-231, 1 h with peptide 1.5 μM, then 12 h in DMEM; for lysotracker stained endosomes (puncta per cell) immediately after incubation: MDA-MB-231, 1 h with peptide (X = K(Ac), WW, FFLIP at 10, 1.5, 1.5 μM), LysoTracker Green DND-26 500 nM 5 min, biological triplicates. On the procedure:
Given that hydrophobicity of the d(X)TAT peptides appears to contribute to their membrane permeation activities, we next sought to establish whether this relationship could be recapitulated with membrane models, i.e. lipid bilayers. To establish which membrane system to test, we first aimed to test whether d(X)TAT peptides generally recapitulate the mechanism of cell entry previously determined with dfTAT. For this purpose, the delivery of TMR-k5 was performed in cells transfected with dominant-negative (DN) rab7(T22N), a protein that disrupts trafficking from early endosomes to late endosomes[29],[30]. For these experiments, d(WW)TAT and d(FFLIP)TAT were chosen as two “high activity/hydrophobicity” d(X)TAT representatives. […] In this case, approximately 5% of cells remained positive for TMR-k5 nuclear staining. […] To further probe the cell penetration mechanism, the number of endosomal organelles stained by Lysotracker in cells before and after delivery was quantified. The rationale behind this assay is that lysotracker accumulates in acidified organelles, typically late endosomes and lysosomes, that endosomal membrane leakage causes an increase of endosomal pH (presumably via leakage of luminal H^+ into the cytosol), and that, consequently, endosomes rendered potentially leaky by d(X)TAT peptides will not be stained by lysotracker.
For the quantification of acidic vesicles, cells were treated with LysoTracker Green DND-26 (500 nM) for 5 min. Alternatively, cells were pretreated with L-Leu-L-Leu methyl ester (LLOME; Sigma-Aldrich) incubated at 1 mM for 10 min, or bafilomycin (Sigma-Aldrich) at 1 µM for 4 h, and then stained with LysoTracker. Likewise, cells were pretreated with d(X)TAT peptides (X = K(Ac), WW, or FFLIP at 10, 1.5, and 1.5 μM) for 1 h. Cells were then washed an stained with LysoTracker immediately or after 12 h incubation in DMEM. For all conditions, fluorescence microscopy images were acquired using the 100× objective on an Olympus IX-81 microscope. ImageJ was used to calculate the number of LysoTracker-stained puncta per cell, as well as the area of each individual puncta. This analysis was performed for 50 cells imaged for each condition and reproduced in biological triplicates.

Test [2] deals with MDA-MB-231 cells. The experiment in a line: Delivery of TMR-k5 probe into live cells (nuclear staining). In kind it is cell-based, human. As to conditions: 1 h, biological triplicates; for TMR-k5 delivery activity (cells with TMR-k5 nuclear staining): MDA-MB-231, d(X)TAT at various concentrations + TMR-k5 20 μM, fluorescence microscopy; for d(X)TAT concentration at which delivery is achieved in a high percentage of cells: MDA-MB-231, TMR-k5 20 μM. From the text: To test the relative delivery efficiency of the d(X)TAT peptides, the cell lines MDA-MB-231 (epithelial-like, human breast cancer, spindle-shaped) and Neuro-2a (mouse neuroblastoma with neuronal and amoeboid stem cell morphology) were chosen. These cell lines are routinely used in cancer research, neuroscience, and toxicology. In the context of this study, we rationalized that the distinct differences in origin and characteristics between MDA-MB-231 and Neuro-2a properties may be useful to assess the generality of the results obtained. MDA-MB-231 or Neuro-2a cells were incubated with d(X)TAT peptides at various concentrations and TMR-k5 (20 μM) for 1 h. Cells were then washed, incubated with the DNA stain Hoechst and the live/dead marker SYTOX green (or SYTOX blue), and imaged by fluorescence microscopy. The localization of TMR-k5 in individual nuclei was then assessed by measuring the overlap between TMR and Hoechst signals (Fig. 2, Figure S13). […] This is because, in our experience, dfTAT and dfTAT analogs display a threshold behavior where, below a certain endosomal concentration, endosomal leakage is not achieved. In contrast above this threshold most late endosomes are permeabilized. […] Our rationale was therefore to titrate cells with different concentrations of d(X)TAT agents, monitor how many cells display cytosolic/nuclear delivery of TMR-k5, and compare the different d(X)TAT peptides.
MDA-MB-231 and Neuro2a cells obtained from ATCC (breast cancer-derived epithelial) were cultured in humidified atmosphere at 5% CO2 and 37 °C. Cells were seeded in plastic 48-well plates (Fisher) for quantitative analysis or 8-well Labtek II plates (Fisher) for qualitative imaging at 100× magnification. The cells were grown to 80–90% confluency in a 37 °C humidified atmosphere containing 5% CO2. Cells were washed three times with Leibovitz’s L15 media (L15) (Fisher). Cells were then incubated with peptide and 20 µM of the TMR-k5 pentalysine probe at 37 °C for 1 h. This was followed by washing the cells three times with L15 supplemented with heparin (Sigma-Aldrich) (1 mg/mL) and an extra L15 wash. […] Additionally, the cell permeable dye Hoechst 33342 (Thermo Fisher Scientific o) was used for nuclear staining. Cells were imaged using an EVOS FL Auto 2 inverted microscope (Thermo Fisher Scientific). The microscope is equipped with a heating chamber maintained at 37 °C. Images were acquired using bright field imaging and five fluorescence filter sets: CFP (Ex = 436 ± 10 nm, Em = 480 ± 20 nm), RFP (Ex = 560 ± 20 nm, Em = 630 ± 35 nm), FITC (Ex = 488 ± 10 nm Em = 520 ± 20 nm), DAPI (Ex = 350 ± 50 nm, Em = 460 ± 25 nm), […]. For image viewing and processing individual images, the Celleste 4.0 software (Thermo Fisher Scientific) was used. Nuclear regions in 20× images where identified using Hoechst staining (the quantification process is described in Figure S13). The intensity of these objects in the TMR channel was then determined using the Celleste software. Cells stained by the SYTOX or DRAQ dyes were considered dead and not counted as positive for delivery. Cells displaying a nuclear TMR-k5 fluorescence above the fluorescence threshold determined for TMR-k5 alone were considered positive for delivery (if excluding SYTOX or DRAQ7 stain, and if visually showing stained nucleoli for confirmation of intracellular localization). The percentage of cells positive for TMR-k5 nuclear staining was then calculated, using Hoechst-stained cells to count the total number of cells present. […] Instead, this assay quantifies the number of cells in which the nuclear fluorescence of TMR-k5 is above a detection threshold. This threshold is dependent on the microscope, imaging conditions, and the concentration of TMR-k5 used during incubation (Figure S13). The reproducibility of all the experiments was assessed by performing experiments with independent batches of cell cultures on three different days (i.e., biological triplicates). […]

Test [3] has as its system Neuro-2a cells. The experiment in a line: Delivery inhibition with dominant negative rab7 or CytoD. In kind it is cell-based, mouse. As to conditions: for cells with TMR-k5 delivery, EGFP-DN-rab7 transfected / nuclear staining of delivered TMR-k5 in cells transfected with EGFP-DN-rab7: Neuro-2a (Fig. 4A), TMR-k5 20 μM, 1 h; for nuclear staining of delivered TMR-k5 in cells transfected with EGFP-DN-rab7: biological triplicates; for cells positive for TMR-k5 nuclear staining in the presence of cytochalasin D / delivery of TMR-k5 in the presence of cytochalasin D: cytoD 20 μM, 30 min pre-incubation and present during 1 h delivery.

Ends that are not written are not given here. * marks the point of attachment. carboxyfluorescein = carboxyfluorescein fluorophore coupled to the lysine ε-amine; DEAC = CCN(CC)c1ccc2cc(C(=O)*)c(=O)oc2c1 A value given as a limit tells only on which side of the number the result lay.

As for `COC(=O)[C@H](CC(C)C)NC(=O)[C@@H](N)CC(C)C` [LLOME, L-Leucine-L-Leucine methyl ester, reference compound], the “lysotracker stained puncta, control agents” value in test [1] is on record as “reduced the number of lysotracker stained puncta”.

On to `CO/C1=C\C(C)=C\[C@@H](C)[C@@H](O)[C@@H](C)C/C(C)=C/C=C/[C@H](OC)[C@@H]([C@@H](C)[C@@H](O)[C@H](C)[C@@]2(O)C[C@@H](O)[C@H](C)[C@@H](C(C)C)O2)OC1=O` [bafilomycin, reference compound], for which the “lysotracker stained puncta, control agents” value in test [1] was “reduced the number of lysotracker stained puncta”.

As for “d(F)TAT: disulfide dimer of CXRKKRRQRRRG with X = F (CFRKKRRQRRRG-NH2; also: disulfide dimer)”, in test [2], the “TMR-k5 delivery activity (cells with TMR-k5 nuclear staining)” value (“TMR-k5 delivery activity” below) is reported as “little to no TMR-k5 delivery is detected”.

With “d(FFLIP)TAT: disulfide dimer of CXRKKRRQRRRG with X = FFLIP (penetration accelerating sequence, Pas)”, in test [3], the “cells with TMR-k5 delivery, EGFP-DN-rab7 transfected” value is listed as 20%; the “nuclear staining of delivered TMR-k5 in cells transfected with EGFP-DN-rab7” value is given as “markedly reduced”; the “cells positive for TMR-k5 nuclear staining in the presence of cytochalasin D” value was “approximately 5%”; the “delivery of TMR-k5 in the presence of cytochalasin D” value is listed as “significantly reduced”. Further, in test [1], the “lysotracker-positive puncta per cell 12 h after incubation” value was “restored to control level” and the “lysotracker stained endosomes (puncta per cell) immediately after incubation” value is given as “caused a reduction in lysotracker stained endosomes”. Moreover, the “d(X)TAT concentration at which delivery is achieved in a high percentage of cells” value in test [2] was less than 3 µM.

Consider “d(K(DEAC))TAT: disulfide dimer of CXRKKRRQRRRG with X = lysine conjugated to 7-diethylaminocoumarin-3-carboxylic acid (CK(DEAC)RKKRRQRRRG-NH2; also: disulfide dimer)”, for which the “d(X)TAT concentration at which delivery is achieved in a high percentage of cells” value in test [2] was less than 3 µM.

In the case of “d(K(Fl))TAT: disulfide dimer of CXRKKRRQRRRG with X = lysine conjugated to carboxyfluorescein (CK(carboxyfluorescein)RKKRRQRRRG-NH2; also: disulfide dimer)”, in test [2], the “d(X)TAT concentration at which delivery is achieved in a high percentage of cells” value is more than 5 µM.

As for “d(LL)TAT: disulfide dimer of CXRKKRRQRRRG with X = LL”, the “d(X)TAT concentration at which delivery is achieved in a high percentage of cells” value in test [2] is more than 5 µM.

For “d(W)TAT: disulfide dimer of CXRKKRRQRRRG with X = W (CWRKKRRQRRRG-NH2; also: disulfide dimer)”, the “TMR-k5 delivery activity” value in test [2] is listed as “little to no TMR-k5 delivery is detected”.

As to “d(WW)TAT: disulfide dimer of CXRKKRRQRRRG with X = WW”, in test [3], the “cells with TMR-k5 delivery, EGFP-DN-rab7 transfected” value is on record as 20%; the “nuclear staining of delivered TMR-k5 in cells transfected with EGFP-DN-rab7” value is listed as “markedly reduced”; the “cells positive for TMR-k5 nuclear staining in the presence of cytochalasin D” value is given as “approximately 5%”; the “delivery of TMR-k5 in the presence of cytochalasin D” value is given as “significantly reduced”. In test [1], the “lysotracker-positive puncta per cell 12 h after incubation” value is given as “restored to control level” and the “lysotracker stained endosomes (puncta per cell) immediately after incubation” value was “caused a reduction in lysotracker stained endosomes”. Also, in test [2], the “d(X)TAT concentration at which delivery is achieved in a high percentage of cells” value is less than 3 µM.

For the molecule “d(Y)TAT: disulfide dimer of CXRKKRRQRRRG with X = Y (CYRKKRRQRRRG-NH2; also: disulfide dimer)”, the “TMR-k5 delivery activity” value in test [2] is “little to no TMR-k5 delivery is detected”.

With “d(YFIL)TAT: disulfide dimer of CXRKKRRQRRRG with X = YFIL”, the “d(X)TAT concentration at which delivery is achieved in a high percentage of cells” value in test [2] was less than 3 µM.
